Results from ChEMBL document CHEMBL3596179, “Structural development of stabilized helical peptides as inhibitors of estrogen receptor (ER)-mediated transcription” (Bioorg Med Chem, 2015).
Active and inactive are the calls of the source. No cut-off for these calls is given here. Positions of bridges follow the written chain, without caps; N, C: chain ends. Non-standard residues stand in square brackets, D forms with d. Residues, ends and D or L forms follow the SMILES beside them. ξ: configuration not given here. ξtBuAla = CC(C)(C)CC(N)C(=O)O; ξAbu = CCC(N)C(=O)O

Assays:
[1] = target: T1, Estrogen receptor (Homo sapiens) (UniProt P03372); experiment: Inhibition of estrogen receptor-mediated gene expression in human T47D cells assessed as reduction in estrogen-induced pS2 mRNA expression at 3 uM incubated for 24 hrs by qPCR method; assay type: cell-based
T1 sequence (whole entry): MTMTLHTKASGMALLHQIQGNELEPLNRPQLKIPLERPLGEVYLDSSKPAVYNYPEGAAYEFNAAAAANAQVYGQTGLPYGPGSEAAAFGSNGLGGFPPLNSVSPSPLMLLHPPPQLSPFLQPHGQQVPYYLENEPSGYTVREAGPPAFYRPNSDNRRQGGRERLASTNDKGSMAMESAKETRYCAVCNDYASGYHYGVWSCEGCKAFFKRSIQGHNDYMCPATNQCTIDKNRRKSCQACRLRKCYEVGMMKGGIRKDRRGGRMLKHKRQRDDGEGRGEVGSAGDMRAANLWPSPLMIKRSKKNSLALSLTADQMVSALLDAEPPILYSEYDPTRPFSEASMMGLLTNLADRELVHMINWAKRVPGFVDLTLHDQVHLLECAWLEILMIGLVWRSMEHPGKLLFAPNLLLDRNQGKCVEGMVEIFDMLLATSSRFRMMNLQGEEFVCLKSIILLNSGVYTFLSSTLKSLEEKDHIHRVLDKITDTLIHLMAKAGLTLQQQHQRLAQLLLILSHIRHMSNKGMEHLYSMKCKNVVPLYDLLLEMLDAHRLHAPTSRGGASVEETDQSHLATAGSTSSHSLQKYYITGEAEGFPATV

[2] = target: T2, Estrogen receptor (Homo sapiens, UniProt P03372)
T2 sequence (P03372 whole entry): T1 sequence (whole entry)
Description: Inhibition of estrogen receptor alpha (unknown origin)-SRC1 coactivator interaction incubated for 1 hr by receptor cofactor assay system based method

[3] = target: T1, Estrogen receptor (Homo sapiens); experiment: Inhibition of estrogen receptor-mediated gene expression in human T47D cells assessed as reduction in estrogen-induced pS2 mRNA expression at 3 to 30 uM incubated for 24 hrs by qPCR method; assay type: cell-based
[4] = target: T1, Estrogen receptor (Homo sapiens); details: T47D, 10 uM
Description: Inhibition of estrogen receptor-mediated gene expression in human T47D cells assessed as reduction in estrogen-induced pS2 mRNA expression at 10 uM incubated for 24 hrs by qPCR method

[5] = tested on: T47D; experiment: Drug uptake in human T47D cells at 1 uM incubated for 3 hrs by Hoechst 33342 dye based confocal laser scanning microscopy; assay type: ADME, cell-based

Molecule | IC50 [2] [nM] | also measured
CC[C@H](C)[C@@H]1NC(=O)[C@H](NC(=O)[C@@H](N)CCCNC(=N)N)CSSC[C@@H](C(=O)N[C@@H](CCCNC(=N)N)C(=O)NC(CC(C)(C)C)C(=O)N[C@@H](CC(C)C)C(=O)N[C@@H](CCC(N)=O)C(=O)NCC(=O)NCC(=O)NCC(=O)N[C@@H](CCCNC(=N)N)C(=O)N[C@@H](CCCNC(=N)N)C(=O)N[C@@H](CCCNC(=N)N)C(=O)N[C@@H](CCCNC(=N)N)C(=O)N[C@@H](CCCNC(=N)N)C(=O)N[C@@H](CCCNC(=N)N)C(=O)N[C@@H](CCCNC(=N)N)C(N)=O)NC(=O)[C@H](CC(C)C)NC1=O (stereo not given in full) | 94 | inhibition [1]: 87%
CCC(NC(=O)[C@H](CC(C)C)NC(=O)[C@@H](NC(=O)[C@H](Cc1cnc[nH]1)NC(=O)[C@@H](N)CCCNC(=N)N)[C@@H](C)CC)C(=O)N[C@@H](CCCNC(=N)N)C(=O)NC(CC(C)(C)C)C(=O)N[C@@H](CC(C)C)C(=O)N[C@@H](CCC(N)=O)C(N)=O (stereo not given in full) (H-RHIL[ξAbu]R[ξtBuAla]LQ-NH2) | 620 | –
H-HKILHRLLQ-NH2 | > 1000 | –
CC[C@H](C)[C@@H]1NC(=O)[C@H](NC(=O)[C@@H](N)CCCNC(=N)N)C/C=C\C[C@@H](C(=O)N[C@@H](CCCNC(=N)N)C(=O)NC(CC(C)(C)C)C(=O)N[C@@H](CC(C)C)C(=O)N[C@@H](CCC(N)=O)C(=O)NCC(=O)NCC(=O)NCC(=O)N[C@@H](CCCNC(=N)N)C(=O)N[C@@H](CCCNC(=N)N)C(=O)N[C@@H](CCCNC(=N)N)C(=O)N[C@@H](CCCNC(=N)N)C(=O)N[C@@H](CCCNC(=N)N)C(=O)N[C@@H](CCCNC(=N)N)C(=O)N[C@@H](CCCNC(=N)N)C(N)=O)NC(=O)[C@H](CC(C)C)NC1=O (stereo not given in full) | – | inhibition [3]: inactive
CC[C@H](C)[C@@H]1NC(=O)[C@H](NC(=O)[C@@H](N)CCCCN)CSSC[C@@H](C(=O)N[C@@H](CCCNC(=N)N)C(=O)N[C@@H](CC(C)C)C(=O)N[C@@H](CC(C)C)C(=O)N[C@@H](CCC(N)=O)C(=O)NCC(=O)NCC(=O)NCC(=O)N[C@@H](CCCNC(=N)N)C(=O)N[C@@H](CCCNC(=N)N)C(=O)N[C@@H](CCCNC(=N)N)C(=O)N[C@@H](CCCNC(=N)N)C(=O)N[C@@H](CCCNC(=N)N)C(=O)N[C@@H](CCCNC(=N)N)C(=O)N[C@@H](CCCNC(=N)N)C(N)=O)NC(=O)[C@H](CC(C)C)NC1=O | 749 | inhibition [4]: 95%; inhibition [1]: 20%
CC[C@H](C)[C@@H]1NC(=O)[C@H](NC(=O)[C@@H](N)CCCNC(=N)N)CCCC[C@@H](C(=O)N[C@@H](CCCNC(=N)N)C(=O)NC(CC(C)(C)C)C(=O)N[C@@H](CC(C)C)C(=O)N[C@@H](CCC(N)=O)C(N)=O)NC(=O)[C@H](CC(C)C)NC1=O (stereo not given in full) | > 1000 | –
CC[C@H](C)[C@@H]1NC(=O)[C@H](NC(=O)[C@@H](N)CCCNC(=N)N)C/C=C/C[C@@H](C(=O)N[C@@H](CCCNC(=N)N)C(=O)NC(CC(C)(C)C)C(=O)N[C@@H](CC(C)C)C(=O)N[C@@H](CCC(N)=O)C(N)=O)NC(=O)[C@H](CC(C)C)NC1=O (stereo not given in full) | 390 | –
CC[C@H](C)[C@@H]1NC(=O)[C@H](NC(=O)[C@H](CCCCN)NC(=O)c2ccc3c(c2)C2(OC3=O)c3ccc(O)cc3Oc3cc(O)ccc32)CSSC[C@@H](C(=O)N[C@@H](CCCNC(=N)N)C(=O)N[C@@H](CC(C)C)C(=O)N[C@@H](CC(C)C)C(=O)N[C@@H](CCC(N)=O)C(N)=O)NC(=O)[C@H](CC(C)C)NC1=O | – | Drug uptake [5]: Not Active
CC[C@H](C)[C@@H]1NC(=O)[C@H](NC(=O)[C@@H](N)CCCNC(=N)N)CSSC[C@@H](C(=O)N[C@@H](CCCNC(=N)N)C(=O)NC(CC(C)(C)C)C(=O)N[C@@H](CC(C)C)C(=O)N[C@@H](CCC(N)=O)C(N)=O)NC(=O)[C@H](CC(C)C)NC1=O (stereo not given in full) | 13 | –
CCC(NC(=O)[C@H](CC(C)C)NC(=O)[C@@H](NC(=O)C(CC)NC(=O)[C@@H](N)CCCNC(=N)N)[C@@H](C)CC)C(=O)N[C@@H](CCCNC(=N)N)C(=O)NC(CC(C)(C)C)C(=O)N[C@@H](CC(C)C)C(=O)NCC(N)=O (stereo not given in full) (H-R[ξAbu]IL[ξAbu]R[ξtBuAla]LG-NH2) | 670 | –
CCC(NC(=O)[C@@H](N)CCCNC(=N)N)C(=O)N[C@H](C(=O)N[C@@H](CC(C)C)C(=O)N[C@@H](Cc1cnc[nH]1)C(=O)N[C@@H](CCCNC(=N)N)C(=O)NC(CC(C)(C)C)C(=O)N[C@@H](CC(C)C)C(=O)N[C@@H](CCC(N)=O)C(N)=O)[C@@H](C)CC (stereo not given in full) (H-R[ξAbu]ILHR[ξtBuAla]LQ-NH2) | > 1000 | –
CC[C@H](C)[C@@H]1NC(=O)[C@H](NC(=O)[C@@H](N)CCCNC(=N)N)C/C=C/C[C@@H](C(=O)N[C@@H](CCCNC(=N)N)C(=O)NC(CC(C)(C)C)C(=O)N[C@@H](CC(C)C)C(=O)N[C@@H](CCC(N)=O)C(=O)NCC(=O)NCC(=O)NCC(=O)N[C@@H](CCCNC(=N)N)C(=O)N[C@@H](CCCNC(=N)N)C(=O)N[C@@H](CCCNC(=N)N)C(=O)N[C@@H](CCCNC(=N)N)C(=O)N[C@@H](CCCNC(=N)N)C(=O)N[C@@H](CCCNC(=N)N)C(=O)N[C@@H](CCCNC(=N)N)C(N)=O)NC(=O)[C@H](CC(C)C)NC1=O (stereo not given in full) | – | inhibition [3]: inactive
CC[C@H](C)[C@@H]1NC(=O)[C@H](NC(=O)[C@H](CCCCN)NC(=O)c2ccc3c(c2)C2(OC3=O)c3ccc(O)cc3Oc3cc(O)ccc32)CSSC[C@@H](C(=O)N[C@@H](CCCNC(=N)N)C(=O)N[C@@H](CC(C)C)C(=O)N[C@@H](CC(C)C)C(=O)N[C@@H](CCC(N)=O)C(=O)NCC(=O)NCC(=O)NCC(=O)N[C@@H](CCCNC(=N)N)C(=O)N[C@@H](CCCNC(=N)N)C(=O)N[C@@H](CCCNC(=N)N)C(=O)N[C@@H](CCCNC(=N)N)C(=O)N[C@@H](CCCNC(=N)N)C(=O)N[C@@H](CCCNC(=N)N)C(=O)N[C@@H](CCCNC(=N)N)C(N)=O)NC(=O)[C@H](CC(C)C)NC1=O | – | Drug uptake [5]: Active

The next lines start with results.

IC50 [2] [nM] | Molecule | also measured
> 1000 | C=CCC(NC(=O)[C@H](CC(C)C)NC(=O)[C@@H](NC(=O)[C@@H](CC=C)NC(=O)[C@@H](N)CCCNC(=N)N)[C@@H](C)CC)C(=O)N[C@@H](CCCNC(=N)N)C(=O)NC(CC(C)(C)C)C(=O)N[C@@H](CC(C)C)C(=O)N[C@@H](CCC(N)=O)C(N)=O (stereo not given in full) | –
35 | CC[C@H](C)[C@@H]1NC(=O)[C@H](NC(=O)[C@@H](N)CCCCN)CSSC[C@@H](C(=O)N[C@@H](CCCNC(=N)N)C(=O)N[C@@H](CC(C)C)C(=O)N[C@@H](CC(C)C)C(=O)N[C@@H](CCC(N)=O)C(N)=O)NC(=O)[C@H](CC(C)C)NC1=O (H-K[dC]ILCRLLQ-NH2; disulfide 2-5) | –
110 | CC[C@H](C)[C@@H]1NC(=O)[C@H](NC(=O)[C@@H](N)CCCNC(=N)N)C/C=C\C[C@@H](C(=O)N[C@@H](CCCNC(=N)N)C(=O)NC(CC(C)(C)C)C(=O)N[C@@H](CC(C)C)C(=O)N[C@@H](CCC(N)=O)C(N)=O)NC(=O)[C@H](CC(C)C)NC1=O (stereo not given in full) | –
> 1000 | H-HKILHRLLQGGGRRRRRRR-NH2 | inhibition [3]: inactive
> 1000 | CC[C@H](C)[C@@H]1NC(=O)[C@H](NC(=O)[C@H](CCCNC(=N)N)NC(=O)CNC(=O)CNC(=O)CNC(=O)[C@H](CCCNC(=N)N)NC(=O)[C@H](CCCNC(=N)N)NC(=O)[C@H](CCCNC(=N)N)NC(=O)[C@H](CCCNC(=N)N)NC(=O)[C@H](CCCNC(=N)N)NC(=O)[C@H](CCCNC(=N)N)NC(=O)[C@@H](N)CCCNC(=N)N)CSSC[C@@H](C(=O)N[C@@H](CCCNC(=N)N)C(=O)NC(CC(C)(C)C)C(=O)N[C@@H](CC(C)C)C(=O)N[C@@H](CCC(N)=O)C(N)=O)NC(=O)[C@H](CC(C)C)NC1=O (stereo not given in full) | inhibition [3]: inactive
> 1000 | N=C(N)NCCC[C@H](NC(=O)[C@H](CCCNC(=N)N)NC(=O)[C@H](CCCNC(=N)N)NC(=O)[C@H](CCCNC(=N)N)NC(=O)[C@H](CCCNC(=N)N)NC(=O)[C@H](CCCNC(=N)N)NC(=O)[C@H](CCCNC(=N)N)NC(=O)[C@@H](N)Cc1ccc(O)cc1)C(N)=O | inhibition [3]: inactive
